Measured values taken from paper PMC4763312, “Comparative study of curcumin and curcumin formulated in a solid dispersion: Evaluation of their antigenotoxic effects” (Genetics and Molecular Biology, 2015).

Legend:
Format in all cases: in vivo, Wistar rats
[1] = Variation in body mass and relative mass of the kidney
Procedure: Male Wistar albino rats, at 5-6 weeks of age and weighing approximately 160 g were obtained from the Animal Facility of the Ribeirão Preto Campus of the University of São Paulo. The animals were divided into 12 groups of six for each treatment. The experimental protocols applied in this study were approved by the Local Ethics Committee for Animal Use (CEUA) of Ribeirão Preto, Brazil, Register No.08.1.1417.53.2. […] These were administered via gavage at 72 h, 48 h, 24h or 30 min before the intraperitoneal administration of saline solution or the antitumoral agent cDDP, which was used as a damage-inducing agent. The body weights of the rats were recorded daily. At 24 h after cDDP administration (5th day), the animals were euthanized for sample collection. […] The same animals were used in genotoxicity assays (micronucleus test and comet assay) and biochemical tests (GSH and TBARS), as well as for the expression analysis of the Tp53 gene.

kidney cells [2] = assay: Alkaline comet assay, kidney cells
Procedure: (§1) These were administered via gavage at 72 h, 48 h, 24h or 30 min before the intraperitoneal administration of saline solution or the antitumoral agent cDDP, which was used as a damage-inducing agent. The body weights of the rats were recorded daily. At 24 h after cDDP administration (5th day), the animals were euthanized for sample collection. […] The same animals were used in genotoxicity assays (micronucleus test and comet assay) and biochemical tests (GSH and TBARS), as well as for the expression analysis of the Tp53 gene. The alkaline version of the comet assay was performed according to protocols proposed by [Singh et al. (1988)] and [Tice et al. (2000)], with minor modifications (the slides were stained with GelRed, 1:10,000, Biotium-USA). To check for possible cytotoxic effects of the treatments, cell viability was determined via the Trypan blue dye exclusion method. […] Following lysis, the slides were placed in a horizontal electrophoresis unit containing 300 mM NaOH and 1 mM EDTA (pH > 13) for 20 min at an electric field strength of 0.78 V/cm (25 V and 300 mA). The slides were neutralized and stained with Gel Red (1:10,000). A total of 100 nucleoids per animal (two slides of 50 nucleoids each) were analysed at a 400x magnification using a fluorescence microscope (Axiostar, Zeiss, Germany) equipped with a 515-560 nm excitation filter, a 590 nm barrier filter and an integrated digital camera. Tail intensity (% tail DNA) was evaluated using the Comet Assay IV software (Perceptive Instruments, Suffolk, UK).

peripheral blood cells [3] = assay: Alkaline comet assay, peripheral blood cells
Procedure: as §1

[4] = Cell viability by Trypan blue dye exclusion, kidney cells; conditions: male, Wistar, rat, kidney cells, oral, % in relation to saline solution group
Procedure: (§2) These were administered via gavage at 72 h, 48 h, 24h or 30 min before the intraperitoneal administration of saline solution or the antitumoral agent cDDP, which was used as a damage-inducing agent. The alkaline version of the comet assay was performed according to protocols proposed by [Singh et al. (1988)] and [Tice et al. (2000)], with minor modifications (the slides were stained with GelRed, 1:10,000, Biotium-USA). To check for possible cytotoxic effects of the treatments, cell viability was determined via the Trypan blue dye exclusion method. […] Following lysis, the slides were placed in a horizontal electrophoresis unit containing 300 mM NaOH and 1 mM EDTA (pH > 13) for 20 min at an electric field strength of 0.78 V/cm (25 V and 300 mA). The slides were neutralized and stained with Gel Red (1:10,000). A total of 100 nucleoids per animal (two slides of 50 nucleoids each) were analysed at a 400x magnification using a fluorescence microscope (Axiostar, Zeiss, Germany) equipped with a 515-560 nm excitation filter, a 590 nm barrier filter and an integrated digital camera. Tail intensity (% tail DNA) was evaluated using the Comet Assay IV software (Perceptive Instruments, Suffolk, UK).

[5] = Cell viability by Trypan blue dye exclusion, peripheral blood cells; conditions: male, Wistar, rat, peripheral blood cells, oral, % in relation to saline solution group
Procedure: as §2

bone marrow erythrocytes = assay: Micronucleus test in bone marrow
Procedure: These were administered via gavage at 72 h, 48 h, 24h or 30 min before the intraperitoneal administration of saline solution or the antitumoral agent cDDP, which was used as a damage-inducing agent. The body weights of the rats were recorded daily. At 24 h after cDDP administration (5th day), the animals were euthanized for sample collection. […] The same animals were used in genotoxicity assays (micronucleus test and comet assay) and biochemical tests (GSH and TBARS), as well as for the expression analysis of the Tp53 gene. The micronucleus test was performed according to the protocol described by [Schmid (1975)]. Bone marrow cells were harvested from rat femurs, mixed with fetal bovine serum, homogenized and centrifuged, and the pellet was resuspended for slide preparations. The slides were then fixed, stained with Giemsa solution and coded. Three slides were produced for each animal. Coded slides were scored under 1000X magnification using a light microscope (Zeiss).

[6] = tested on: reduced glutathione (GSH) in kidney tissue; assay: GSH level in the kidney; conditions: for GSH: kidney
Procedure: These were administered via gavage at 72 h, 48 h, 24h or 30 min before the intraperitoneal administration of saline solution or the antitumoral agent cDDP, which was used as a damage-inducing agent. The body weights of the rats were recorded daily. At 24 h after cDDP administration (5th day), the animals were euthanized for sample collection. […] The same animals were used in genotoxicity assays (micronucleus test and comet assay) and biochemical tests (GSH and TBARS), as well as for the expression analysis of the Tp53 gene. GSH concentrations in kidney tissue were determined according to method described by [Sedlak and Lindsay (1968)]. […] A 2.0 mL volume of Tris-EDTA buffer (0.2 M, pH 8.9) and 0.1 mL of 5,5 ‘-dithio-bis-2-nitrobenzoic acid (DTNB) in 0.01 M methanol were added to a 0.5 mL aliquot of the supernatant. The samples were maintained at room temperature for 15 min and then read at 412 nm (RayLeigh UV-1601 spectrophotometer). Standard curves were prepared using α-cysteine, and results were expressed as nmol GSH/g protein. The quantification of total proteins was done at 650 nm (RayLeigh UV-1601 spectrophotometer) using Lowry’s method ([Hartree, 1972]).

[7] = tested on: thiobarbituric-acid-reactive substances (TBARS) in kidney tissue; assay: TBARS level in the kidney; conditions: for TBARS: kidney
Procedure: These were administered via gavage at 72 h, 48 h, 24h or 30 min before the intraperitoneal administration of saline solution or the antitumoral agent cDDP, which was used as a damage-inducing agent. The body weights of the rats were recorded daily. At 24 h after cDDP administration (5th day), the animals were euthanized for sample collection. […] The same animals were used in genotoxicity assays (micronucleus test and comet assay) and biochemical tests (GSH and TBARS), as well as for the expression analysis of the Tp53 gene. TBARS measurements in kidney tissue were performed according to [Buege and Aust (1978)]. A 0.5 mL aliquot of the homogenate was added to 1 mL of thiobarbituric acid solution (containing 15% trichloroacetic acid and 0.25 M HCl) to a final concentration of […]. This mixture was warmed in a water bath for 15 min and centrifuged for 20 min at 180 x g. The absorbance of the supernatant was determined at 535 nm (UV-VisB582 Micronal spectrophotometer), and the results were expressed as nmol TBARS/mg protein. […] The quantification of total proteins was done at 650 nm (RayLeigh UV-1601 spectrophotometer) using Lowry’s method ([Hartree, 1972]).

Tp53 mRNA = assay: Quantification of Tp53 mRNA in kidney tissue (RT-qPCR); conditions: 50 mg/kg b.w. together with cDDP 6 mg/kg b.w.
Procedure: These were administered via gavage at 72 h, 48 h, 24h or 30 min before the intraperitoneal administration of saline solution or the antitumoral agent cDDP, which was used as a damage-inducing agent. Total RNA was extracted from kidney tissue using the SV Total Isolation System kit (Promega, Madison, WI, USA), according the manufacturer's instructions. […] The extracted RNA was converted to cDNA using the SuperScriptTM III kit (Invitrogen, Carlsbad, CA, USA), and RT-qPCR was performed in a CFX96 Real-Time PCR Detection System (Bio-Rad, CA, USA) using the Bio-Rad Real-Time PCR system with ABsoluteTM QPCR SYBR1 Green Mix (Invitrogen, Carlsbad, CA, USA), where fluorescence detection was performed following each annealing/extension cycle. The following reference genes were tested for suitability: b-actin (b-actin-forward: […] reverse: […] (GAPDH-forward: […]-reverse: [NT] and […]-forward: […]-reverse [NT] Based on stability, we selected b-actin as the endogenous control gene for RT-qPCR. Gene-specific primers for Tp53 (Tp53-forward: [NT]; Tp53-reverse: […] Louis, MO, USA). RT-qPCR efficiencies for Tp53 and b-actin were satisfactory, and the relative expression of Tp53 mRNA was normalized to the amount of b-actin using the method of relative 2^-ΔΔCt quantification described by [Livak and Schmittgen (2001)].

kidney cells [8] = assay: Cell viability by Trypan blue dye exclusion, kidney cells; conditions: % in relation to saline solution group; GLA gavage + cDDP 6 mg/kg b.w. i.p.
Procedure: as §2

peripheral blood cells [9] = assay: Cell viability by Trypan blue dye exclusion, peripheral blood cells; conditions: % in relation to saline solution group; GLA gavage + cDDP 6 mg/kg b.w. i.p.
Procedure: as §2

[10] = 50 mg/kg b.w. gavage x4 + cDDP 6 mg/kg b.w. i.p.
[11] = 50 mg/kg b.w. gavage x4 + i.p. saline
[12] = 50 mg/kg b.w. gavage x4 + cDDP 6 mg/kg b.w. i.p., 24 h
[13] = GLA gavage + cDDP 6 mg/kg b.w. i.p.
[14] = GLA gavage + cDDP 6 mg/kg b.w. i.p., 24 h

## COc1cc(C=CC(=O)CC(=O)C=Cc2ccc(O)c(OC)c2)ccc1O [CMN, 1,7-bis[4-hydroxy 3-methoxyphenyl]-1,6-heptadiene-3,5-dione]
[1]; [10]
  Body weight variation, interval 2 (day 4 to 5): 0.1 ± 2.5 g
  Kidney/body weight: 0.90 ± 0.06%
[1]; 50 mg/kg b.w. gavage x4 + cDDP 6 mg/kg b.w. i.p. group
  Body weight variation, interval 1 (days 1 to 4): 31.8 ± 4.7 g
[1]; [11]
  Body weight variation, interval 1 (days 1 to 4): 31.7 ± 6.6 g
  Body weight variation, interval 2 (day 4 to 5): 8.2 ± 2.4 g
  Kidney/body weight: 0.96 ± 0.05%
[1]; combined application with cDDP
  Reduction of body weight gain triggered by cDDP (in words): did not alter the reduction of body weight gain
Kidney cells [2]; [10]
  % tail DNA, kidney: 4.0 ± 0.8%
Kidney cells [2]; [11]
  % tail DNA, kidney: 5.5 ± 2.8%
Kidney cells [2]; with cDDP 6 mg/kg b.w.
  Comet assay, in association with cDDP compared to cDDP-only group (in words): did not induce significant alterations
Peripheral blood cells [3]; [10]
  % tail DNA, peripheral blood: 2.1 ± 0.6%
Peripheral blood cells [3]; [11]
  % tail DNA, peripheral blood: 3.2 ± 0.9%
[4]; [10]
  viability at 24 h: 88.5 ± 2.2%
[4]; [11]
  viability at 24 h: 89 ± 2.3%
[5]; [10]
  viability at 24 h: 99.2 ± 0.7%
[5]; [11]
  viability at 24 h: 98.7 ± 0.5%
Bone marrow erythrocytes; [10]
  Frequency of micronucleated polychromatic erythrocytes, MNPCEs/1000 PCEs: 7.08 ± 3.04 ^# MNPCEs/1000 PCEs
Bone marrow erythrocytes; [11]
  Frequency of micronucleated polychromatic erythrocytes, MNPCEs/1000 PCEs: 1.91 ± 1.27 MNPCEs/1000 PCEs
Bone marrow erythrocytes; CMN SD 5, 25 and 50 mg/kg b.w., unmodified CMN 50 mg/kg b.w., p < 0.05
  Formation of cDDP-induced micronuclei (in words): significantly reduced
[6]; administered alone
  GSH concentration in renal tissue (in words): did not alter
[6]; [12]
  GSH: 17.0 ± 1.4 nmol/mg protein
[6]; [11]
  GSH: 14.4 ± 1.2 nmol/mg protein
[7]; administered alone
  TBARS concentration in renal tissue (in words): did not alter
[7]; [12]
  TBARS: 0.222 ± 0.064 nmol/mg protein
[7]; [11]
  TBARS: 0.236 ± 0.018 nmol/mg protein
[7]; with cDDP 6 mg/kg b.w., p > 0.05 vs saline solution group
  TBARS levels, administered together with cDDP (in words): able to maintain the TBARS levels observed in the saline solution group
Tp53 mRNA
  Tp53 expression compared to saline solution group: up-regulated

## [NH2][Pt]([NH2])([Cl])[Cl] [cDDP, Cisplatin]
[1]; [13]
  Body weight variation, interval 2 (day 4 to 5): 0.8 ± 2.2 g
  Kidney/body weight: 1.02 ± 0.11%
[1]; GLA gavage + cDDP 6 mg/kg b.w. i.p. group
  Body weight variation, interval 1 (days 1 to 4): 27.5 ± 6.1 g
Kidney cells [2]; [13]
  % tail DNA, kidney: 3.8 ± 0.7 %
Peripheral blood cells [3]; [13]
  % tail DNA, peripheral blood: 2.2 ± 0.8%
Kidney cells [8]
  Cell viability, kidney: 86.5 ± 3.1%
Peripheral blood cells [9]
  Cell viability, peripheral blood: 98.8 ± 0.7%
Bone marrow erythrocytes; [13]
  Frequency of micronucleated polychromatic erythrocytes, MNPCEs/1000 PCEs: 12.75 ± 3.32 MNPCEs/1000 PCEs
Bone marrow erythrocytes; in 500 erythrocytes, GLA gavage + cDDP 6 mg/kg b.w. i.p.
  PCE/(PCE + NCE) ratio: 44.8 ± 4.9%
[6]; [14]
  GSH: 18.5 ± 0.6 nmol/mg protein
[7]; [14]
  TBARS: 0.286 ± 0.014 nmol/mg protein
